Patent EP0325187B1, “4-alkyl-1, 4-dihydropyridines with PAF-antagonist activity” (ALTER, S.A., priority 1988, dated 1989)

Assays:
RABBIT PLATELETS [1] = assay: Aggregation of washed platelets induced by PAF (turbidimetric, lumiaggregometer); format: cell-based, rabbits (male, albino, New Zealand); conditions: Oryctolagus cuniculus, Platelet; compound 10 µM; 1-PAF 1.92 nM; pre-incubation 5 minutes; average of six experiments in triplicate
Description: (§1) • 1. STUDIES ON WASHED PLATELETS • 1.1.Aggregation The suspensions of washed platelets were obtained from the blood of rabbits (male, albino, New Zealand) anticoagulated with a citric acid-dextrose solution in the proportion 1:6 (v:v.) The platelet rich plasma (PRP) was obtained by centrifuging the blood samples at 100xg for 10 minutes and the platelet suspensions by centrifuging the PRP at 1,800xg for 15 minutes at 4° C. The pellet thus obtained was washed twice with Tyrode buffer containing citric acid, PGE₁ and apirase, pH 6.5. The platelets thus washed were finally resuspended in Hepes-Tyrode buffer, pH 7.35, supplemented with bovine albumin serum at 0.35 %; Ca⁺⁺2 mM. The final concentration of platelets was adjusted to 300,000 platelets/µl. The aggregation was measured turbidimetrically using a lumiaggregometer (Chrono-Log Co., Haventon, PA, USA) at 37° C under stirring at 1,100 r.p.m. The study was also carried out on aliquots of PRP pre-incubated with the compounds under study at 37° C for 5 minutes. The concentration of the antagonists were in all cases 10 µM and aggregation was induced by adding L-PAF diluted in 5 µl of Hepes buffer/albumin, with a final concentration 1.9 x 10⁻⁹M. • 1.2. Release reaction The platelet secretion was measured in the presence of luciferin/luciferase with ATP release in accord with the method described by Feinman et al. (1977.) • 2. STUDIES ON ANESTHETIZED RATS Hypotension induced by an intravenous injection of PAF-aceter. Male Sprague-Dawley rats anesthetized with pentobarbital (50 mg/kg., intraperitoneally) were used.

RABBIT PLATELETS [2] = assay: Platelet release reaction (ATP release, luciferin/luciferase) induced by PAF; format: cell-based, rabbits (male, albino, New Zealand); conditions: Oryctolagus cuniculus, read-out: % […] REACTION, compound 10 µM, 1-PAF 1.92 nM, pre-incubation 5 minutes, average of six experiments in triplicate
Description: as §1

CCOC(=O)C1=C(C)NC(C)=C(C(=O)OCCSC)C1CC (stereo not shown) [Example 6, 2-(methylthio)ethyl-2,6-dimethyl-4-ethyl-5-ethoxycarbonyl-1,4-dihydropyridin-3-carboxylate]
inhibition at 10 µM (RABBIT PLATELETS [1]): 32% | inhibition at 10 µM (RABBIT PLATELETS [2]): 89%

CCOC(=O)C1=C(C)NC(C)=C(C(=O)OCCSc2ccccc2)C1C (stereo not shown) [Example 9, 2-(phenylthio)ethyl-2,6-dimethyl-5-ethoxycarbonyl-4-methyl-1,4-dihydropyridin-3-carboxylate]
inhibition at 10 µM (RABBIT PLATELETS [1]): 100% | inhibition at 10 µM (RABBIT PLATELETS [2]): 100%

CC1=C(C(=O)OCCSc2ccccc2)C(C)C(C(=O)OCC2CCCO2)=C(C)N1 (stereo not shown) [Example 10, 2-(phenylthio)ethyl-2,6-dimethyl-4-methyl 5-(2-tetrahydrofurfuryloxycarbonyl)-1,4-dihydropyridin-3-carboxylate]
inhibition at 10 µM (RABBIT PLATELETS [1]): 11% | inhibition at 10 µM (RABBIT PLATELETS [2]): 49%

CCOC(=O)C1=C(C)NC(C)=C(C(=O)OCCSCC)C1C (stereo not shown) [Example 4, 2-(ethylthio)ethyl-2,6-dimethyl-5-ethoxycarbonyl-4-methyl-1,4-dihydropyridin-3-carboxylate]
inhibition at 10 µM (RABBIT PLATELETS [1]): 32% | inhibition at 10 µM (RABBIT PLATELETS [2]): 89%

CC1=C(C(=O)OCCSc2ccccc2)C(C)C(C(=O)OC(C)C)=C(C)N1 (stereo not shown) [Example 11, 2-(phenylthio)ethyl-2,6-dimethyl-5-isopropoxycarbonyl-4-methyl-1,4-dihydropyridin-3-carboxylate]
inhibition at 10 µM (RABBIT PLATELETS [1]): 33% | inhibition at 10 µM (RABBIT PLATELETS [2]): 89%

COC(=O)C1=C(C)NC(C)=C(C(=O)OCCSC)C1C (stereo not shown) [Example 2, 2-(methylthio)ethyl-2,6-dimethyl-4-methyl-5-methoxycarbonyl-1,4-dihydropyridin-3-carboxylate]
inhibition at 10 µM (RABBIT PLATELETS [1]): 26% | inhibition at 10 µM (RABBIT PLATELETS [2]): 75%

CCOC(=O)C1=C(C)NC(C)=C(C(=O)OCCSC)C1C (stereo not shown) [Example 3, 2,6-(methylthio)ethyl-2,6 dimethyl-5-ethoxycarbonyl-4-methyl-1,4-dihydropyridin-3-carboxylate]
inhibition at 10 µM (RABBIT PLATELETS [1]): 21% | inhibition at 10 µM (RABBIT PLATELETS [2]): 78%

CCCC1C(C(=O)OCC)=C(C)NC(C)=C1C(=O)OCCSC (stereo not shown) [Example 7, 2-(methylthio)ethyl-2,6-dimethyl-5-ethoxycarbonyl-4-n-propyl-1,4-dihydropyridin-3-carboxylate]
inhibition at 10 µM (RABBIT PLATELETS [1]): 14% | inhibition at 10 µM (RABBIT PLATELETS [2]): 50%

COC(=O)C1=C(C)NC(C)=C(C(=O)OCCSc2ccccc2)C1C (stereo not shown) [Example 12, 2-(phenylthio)ethyl-2,6-dimethyl 4-methyl-5-methoxycarbonyl-1,4-dihydropyridin-3-carboxylate]
inhibition at 10 µM (RABBIT PLATELETS [1]): 100% | inhibition at 10 µM (RABBIT PLATELETS [2]): 100%

CCSCCOC(=O)C1=C(C)NC(C)=C(C(=O)OC)C1C (stereo not shown) [Example 1, 2-(ethylthio)ethyl-2,6-dimethyl-4-methyl-5-methoxycarbonyl-1,4-dihydropyridin-3-carboxylate]
inhibition at 10 µM (RABBIT PLATELETS [1]): 44% | inhibition at 10 µM (RABBIT PLATELETS [2]): 96%

CCCC1C(C(=O)OCC)=C(C)NC(C)=C1C(=O)OCCSCC (stereo not shown) [Example 8, 2-(ethylthio)ethyl-2,6-dimethyl-5-ethoxycarbonyl-4-n-propyl-1,4-dihydropyridin-3-carboxylate]
inhibition at 10 µM (RABBIT PLATELETS [1]): 30% | inhibition at 10 µM (RABBIT PLATELETS [2]): 69%
